Laboratory results reported in patent US9198432B2, “1,2,4-triazolyl-substituted ketoenols” (BAYER INTELLECTUAL PROPERTY GMBH, priority 2011, dated 2015).

Experiments:
Type in all cases: in vivo
[1] = tested on: greenhouse red spider mite (Tetranychus urticae); assay: Tetranychus spray test, OP-resistant (TETRUR); settings: after 6 days, bean leaf discs
Experimental: Tetranychus Spray Test, OP-resistant (TETRUR)
(§1) Solvents: 78.0 parts by weight of acetone • • 1.5 parts by weight of dimethylformamide
Emulsifer: 0.5 part by weight of alkylaryl polyglycol ether
(§2) To produce a suitable preparation of active compound, 1 part by weight of active compound is mixed with the stated amounts of solvent and emulsifier, and the concentrate is diluted with emulsifier-containing water to the desired concentration.
Discs of bean leaves (Phaseolus vulgaris) which are infested by all stages of the greenhouse red spider mite (Tetranychus urticae) are sprayed with an active compound preparation of the desired concentration.
After 6 days, the effect in % is determined 100% here means that all of the spider mites have been killed; 0% means that none of the spider mites have been killed.

[2] = tested on: green peach aphid (Myzus persicae); assay: Myzus persicae spray test (MYZUPE); settings: 500 g/ha, after 6 days, Chinese cabbage disks
Experimental: Myzus persicae Spray Test (MYZUPE) Solvents: 78 parts by weight of acetone • • 1.5 parts by weight of dimethylformamide Emulsifier: 0.5 part by weight of alkylaryl polyglycol ether To produce a suitable preparation of active compound, 1 part by weight of active compound is mixed with the stated amounts of solvent and emulsifier, and the concentrate is diluted with emulsifier-containing water to the desired concentration. Disks of Chinese cabbage (Brassica pekinensis) infested by all stages of the green peach aphid (Myzus persicae) are sprayed with an active compound formulation of the desired concentration. After 6 days, the effect in % is determined 100% here means that all of the aphids have been killed; 0% means that none of the aphids have been killed.

[3] = tested on: larvae of the mustard beetle (Phaedon cochleariae); assay: Phaedon cochleariae spray test (PHAECO); settings: 500 g/ha, after 7 days, Chinese cabbage leaf disks
Experimental: Phaedon Cochleariae Spray Test (PHAECO)
as §1
Emulsifier: 0.5 part by weight of alkylaryl polyglycol ether
as §2
After 7 days, the effect in % is determined 100% means that all beetle larvae have been killed; 0% means that none of the beetle larvae have been killed.

Lucilia cuprina larvae = assay: Lucilia cuprina (48 h) test; settings: 100 ppm, after 48 hours, treated horse meat
Experimental: Lucilia Cuprina (48 h) Solvent: dimethyl sulfoxide To produce a suitable preparation of active compound, 10 mg of active compound are mixed with 0.5 ml of dimethyl sulfoxide, and the concentrate is diluted with water to the desired concentration. Vessels containing horse meat treated with the active compound preparation of the desired concentration are populated with about 20 Lucilia cuprina larvae. After 48 hours, the kill in % is determined 100% means that all larvae have been killed; 0% means that no larvae have been killed.

SMILES	efficacy (effect in %, spider mites killed) ([1]; 100 g/ha)	efficacy (effect in %, aphids killed) [2]	efficacy (effect in %, spider mites killed) ([1]; 500 g/ha)	further results
CCON1CCC2(CC1)NC(=O)C(c1nc(-c3ccc(Cl)cc3)nn1C)=C2O [Example I-1-a9-3]	90%	90%		
CON1CCC2(CC1)NC(=O)C(c1nc(-c3ccc(Cl)cc3)nn1C)=C2O [Example I-1-a10-3]	90%	90%		
Cn1nc(-c2ccc(Cl)cc2)nc1C1=C(O)C2(CCC(C(F)(F)F)CC2)NC1=O (centres unmarked) [Example I-1-a8-3]			100%	
CCn1nc(-c2ccc(F)cc2)nc1-c1c(O)n2n(c1=O)CCOCC2 [Example I-8-a5]	90%			
CCCOC1CCC2(CC1)NC(=O)C(c1nc(-c3ccc(Cl)cc3)nn1C)=C2O (centres unmarked) [Example I-1-a6-3]		90%	90%	efficacy (effect in %, beetle larvae killed) [3]: 100%
C=CCOC1CCC2(CC1)NC(=O)C(c1nc(-c3ccc(Cl)cc3)nn1C)=C2O (centres unmarked) [Example I-1-a11-3]	90%	90%		
CCn1nc(-c2ccc(Cl)cc2)nc1C1=C(O)C(C)(C)NC1=O [Example I-1-a1-4]		80%	80%	
COC1CCC2(CC1)NC(=O)C(c1nc(-c3ccc(F)cc3)nn1C)=C2O (centres unmarked) [Example I-1-a2-1]		100%	100%	
Cn1nc(-c2ccccc2)nc1C1=C(O)C2(CCOCC2)NC1=O [Example I-1-a3-5]		100%		
Cn1nc(-c2ccc(Cl)cc2)nc1C1=C(O)C(C)(C)NC1=O [Example I-1-a1-3]			100%	efficacy (kill in %) (Lucilia cuprina larvae): 90%
COC1CCC2(CC1)NC(=O)C(c1nc(-c3ccc(Cl)cc3)nn1C)=C2O (centres unmarked) [Example I-1-a2-3]		100%	100%	
Cn1nc(-c2ccc(Cl)cc2)nc1-c1c(O)n2n(c1=O)CCOCC2 [Example I-8-a3]	90%	90%		
CC1CCC2(CC1)NC(=O)C(c1nc(-c3ccc(Cl)cc3)nn1C)=C2O (centres unmarked) [Example I-1-a7-3]		90%	90%	
COC1CCC2(CC1)NC(=O)C(c1nc(-c3ccccc3)nn1C)=C2O (centres unmarked) [Example I-1-a2-5]		100%		
CCn1nc(-c2ccc(Cl)cc2)nc1C1=C(O)C2CCCN2C1=O (centres unmarked) [Example I-1-a4-4]			100%	
CC(C)n1nc(-c2ccc(Cl)cc2)nc1C1=C(O)C(C)(C)NC1=O [Example I-1-a1-9]	90%			
CC1COC2(CCC3(CC2)NC(=O)C(c2nc(-c4ccc(Cl)cc4)nn2C)=C3O)OC1 (centres unmarked) [Example I-1-a13-3]		90%		
Cn1nc(-c2ccc(F)cc2)nc1C1=C(O)C2(CCOCC2)NC1=O [Example I-1-a3-1]			100%	
